Like-named read-outs stand apart in the source and are kept apart here.
Key:
[1] = biological target: human PDE2A1 (Homo sapiens (Human), UniProt O00408); assay: biochemical; type: biochemical
[2] = reported in Brandon et al. 2007; cited from earlier work
[3] = biological target: Rhesus PDE2A3 (Macaca mulatta, UniProt B3VTJ2); assay: PDE2 fluorescence polarization (IMAP FP) inhibition assay, rhesus enzyme; type: biochemical, rhesus macaque
[4] = read-out: Human PDE2 Ki (nM) Lab B
[5] = Lab A, read-out: Rhesus PDE2 Ki (nM) Lab A
[6] = Lab A, read-out: Human PDE2 Ki (nM) Lab A
[7] = Lab B, read-out: Human PDE2 Ki (nM) Lab B
[8] = Lab B, read-out: Rhesus PDE2 Ki (nM) Lab B

Sequence of human PDE2A1 (O00408 other isoform, or with tags, fused parts or gaps): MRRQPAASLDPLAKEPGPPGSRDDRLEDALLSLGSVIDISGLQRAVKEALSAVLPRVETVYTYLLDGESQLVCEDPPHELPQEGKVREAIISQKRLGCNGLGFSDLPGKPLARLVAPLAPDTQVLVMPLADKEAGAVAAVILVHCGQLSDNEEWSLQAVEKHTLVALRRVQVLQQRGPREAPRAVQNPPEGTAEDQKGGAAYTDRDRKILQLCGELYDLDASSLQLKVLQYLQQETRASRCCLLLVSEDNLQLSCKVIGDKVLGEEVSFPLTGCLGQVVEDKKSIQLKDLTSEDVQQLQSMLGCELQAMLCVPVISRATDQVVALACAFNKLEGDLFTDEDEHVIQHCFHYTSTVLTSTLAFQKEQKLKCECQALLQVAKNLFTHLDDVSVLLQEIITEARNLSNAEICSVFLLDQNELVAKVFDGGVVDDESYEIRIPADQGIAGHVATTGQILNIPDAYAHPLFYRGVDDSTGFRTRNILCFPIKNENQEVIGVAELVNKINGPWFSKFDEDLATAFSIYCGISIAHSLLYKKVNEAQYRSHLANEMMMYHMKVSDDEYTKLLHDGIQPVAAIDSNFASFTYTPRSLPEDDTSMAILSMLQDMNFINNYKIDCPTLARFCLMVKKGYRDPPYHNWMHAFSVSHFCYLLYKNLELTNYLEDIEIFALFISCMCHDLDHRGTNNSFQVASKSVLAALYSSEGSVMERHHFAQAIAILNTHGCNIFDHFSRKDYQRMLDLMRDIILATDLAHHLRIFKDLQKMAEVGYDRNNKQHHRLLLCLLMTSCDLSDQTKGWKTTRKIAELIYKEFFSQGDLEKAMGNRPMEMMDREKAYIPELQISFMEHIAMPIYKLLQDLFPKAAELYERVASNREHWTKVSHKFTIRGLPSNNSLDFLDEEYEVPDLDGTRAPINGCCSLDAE
Sequence of Rhesus PDE2A3 (B3VTJ2 1-941): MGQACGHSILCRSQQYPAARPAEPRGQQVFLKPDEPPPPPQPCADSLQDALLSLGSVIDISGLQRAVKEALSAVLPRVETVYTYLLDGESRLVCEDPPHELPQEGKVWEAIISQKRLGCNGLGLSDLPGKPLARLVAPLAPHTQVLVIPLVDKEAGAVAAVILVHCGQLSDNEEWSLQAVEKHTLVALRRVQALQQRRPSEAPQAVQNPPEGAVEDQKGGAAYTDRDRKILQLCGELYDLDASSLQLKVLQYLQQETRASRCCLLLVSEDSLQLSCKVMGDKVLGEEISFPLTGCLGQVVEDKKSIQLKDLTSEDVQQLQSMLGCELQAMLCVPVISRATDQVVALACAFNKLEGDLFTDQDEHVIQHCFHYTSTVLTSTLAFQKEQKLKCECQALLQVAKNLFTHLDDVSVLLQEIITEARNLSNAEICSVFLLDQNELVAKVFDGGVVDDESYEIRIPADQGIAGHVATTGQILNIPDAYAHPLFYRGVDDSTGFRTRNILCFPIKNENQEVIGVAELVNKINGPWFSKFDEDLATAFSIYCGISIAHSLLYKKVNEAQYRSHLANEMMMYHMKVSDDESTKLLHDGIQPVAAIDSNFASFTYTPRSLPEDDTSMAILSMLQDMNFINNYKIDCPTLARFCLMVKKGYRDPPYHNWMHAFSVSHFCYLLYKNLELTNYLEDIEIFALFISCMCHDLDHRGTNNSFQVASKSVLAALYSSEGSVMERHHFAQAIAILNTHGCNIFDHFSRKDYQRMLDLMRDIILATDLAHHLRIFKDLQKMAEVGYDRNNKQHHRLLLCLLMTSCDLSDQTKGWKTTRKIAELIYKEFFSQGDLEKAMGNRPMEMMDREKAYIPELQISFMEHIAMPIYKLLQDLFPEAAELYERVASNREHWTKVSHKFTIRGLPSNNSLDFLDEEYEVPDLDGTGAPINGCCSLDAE

Structure (SMILES) | Ki [1, 7] | other results
CC(C)(O)C(Nc1nc(C(F)(F)F)cc2nccn12)c1ccc(C(F)(F)F)c(F)c1 (single isomer, unassigned) [Example 33, (R or S)-1-[3-Fluoro-4-(trifluoromethyl)phenyl]-2-methyl-1-{[7-(trifluoromethyl)imidazo[1,2-c]pyrimidin-5-yl]amino}propan-2-ol] | – | Ki [1, 4]: 1330 nM
CC(C)(O)C(Nc1nc(C(F)(F)F)cc2nccn12)c1ccc(C(F)(F)F)c(F)c1 (single isomer, unassigned) [Example 34, (S or R)-1-[3-Fluoro-4-(trifluoromethyl)phenyl]-2-methyl-1-{[7-(trifluoromethyl)imidazo[1,2-c]pyrimidin-5-yl]amino}propan-2-ol] | – | Ki [1, 4]: > 2960 nM
COc1ccc(Cc2nn3c([C@@H](CCCc4ccccc4)[C@@H](C)O)nc(C)c3c(=O)[nH]2)cc1OC [Bay 60-7550] | – | brain penetration [2]: limited
CC(C)c1ccc(C(C)Nc2nc(Cl)nc3c2cnn3C)cc1 (stereo not shown) [Example 5, 6-Chloro-1-methyl-N-{1-[4-(1-methylethyl)-phenyl]ethyl}-1H-pyrazolo-[3,4-d]pyrimidin-4-amine] | – | Ki [3, 5]: 401 nM
CCC(Nc1nc(Cl)nc2c1cnn2C)c1ccc(C(C)C)cc1 (stereo not shown) [Example 6, 6-Chloro-1-methyl-N-{1-[4-(1-methylethyl)-phenyl]propyl}-1H-pyrazolo-[3,4-d]pyrimidin-4-amine] | – | Ki [3, 5]: 468 nM
CC(Nc1nc(Cl)nc2c1cnn2C)c1ccc(-n2cccn2)cc1 (stereo not shown) [Example 7, 6-Chloro-1-methyl-N-{1-[4-(1H-pyrazol-1-yl)phenyl]-ethyl}-1H-pyrazolo[3,4-d]-pyrimidin-4-amine] | – | Ki [3, 5]: 2650 nM
C[C@H](c1ccc(C(F)(F)F)cc1)N(C)c1nc(Cl)nc2c1cnn2C [Example 14, 6-Chloro-N,1-dimethyl-N-{(1R)-1-[4-(trifluoromethyl)phenyl]ethyl}-1H-pyrazolo[3,4-d]pyrimidin-4-amine] | – | Ki [1, 6]: 65 nM; Ki [3, 5]: 137 nM
CN(Cc1ccc(C(F)(F)F)cc1)c1nc(Cl)nc2c1cnn2C [Example 15, 6-Chloro-N,1-dimethyl-N-[4-(trifluoromethyl)-benzyl]-1H-pyrazolo-[3,4-d]pyrimidin-4-amine] | – | Ki [3, 5]: 997 nM
CCN(Cc1ccc(C(F)(F)F)cc1)c1nc(Cl)nc2c1cnn2C [Example 16, 6-Chloro-N-ethyl-1-methyl-N-[4-(trifluoromethyl)-benzyl]-1H-pyrazolo-[3,4-d]pyrimidin-4-amine] | – | Ki [1, 6]: 429 nM; Ki [3, 5]: 866 nM
CN(c1nc(Cl)nc2c1cnn2C)C1(c2ccc(C(F)(F)F)cc2)CC1 [Example 17, 6-Chloro-N,1-dimethyl-N-{1-[4-(trifluoromethyl)phenyl]cyclopropyl}-1H-pyrazolo[3,4-d]pyrimidin-4-amine] | 3.8 nM | Ki [3, 5]: 1.5 nM; Ki [3, 8]: 6 nM
CC(Nc1nc(Cl)nc2c1cnn2C(C)C)c1ccc(C(F)(F)F)cc1 (stereo not shown) [Example 18, 6-Chloro-1-(1-methylethyl)-N-{1-[4-(trifluoromethyl)phenyl]ethyl}-1H-pyrazolo[3,4-d]pyrimidin-4-amine] | – | Ki [3, 5]: 1970 nM
Cn1ncc2c(NC3(c4ccc(C(F)(F)F)cc4)CC3)nc(C(F)(F)F)nc21 [Example 19, 1-Methyl-6-(trifluoromethyl)-N-(1-(4-(trifluoromethyl)phenyl)cyclopropyl)-1H-pyrazolo[3,4-d]pyrimidin-4-amine] | 67 nM | Ki [3, 8]: 80 nM
Cc1nc(N[C@H](C)c2ccc(C(F)(F)F)cc2)c2cnn(C)c2n1 [Example 21, 1,6-Dimethyl-N-{(1R)-1-[4-(trifluoromethyl)-phenyl]ethyl}-1H-pyrazolo[3,4-d]-pyrimidin-4-amine] | – | Ki [1, 6]: 140 nM; Ki [3, 5]: 194 nM
Cc1nc(NC2(c3ccc(OC(F)(F)F)c(F)c3)CC2)c2cnn(C)c2n1 [Example 22] | 35 nM | Ki [3, 8]: 55 nM
Cc1nc(NC2(c3ccc(SC(F)(F)F)cc3)CC2)c2cnn(C)c2n1 [Example 23, 1,6-Dimethyl-N-(1-{4-[(trifluoromethyl)-sulfanyl]phenyl}-cyclopropyl)-1H-pyrazolo[3,4-d]-pyrimidin-4-amine] | 16 nM | Ki [3, 8]: 20 nM
Cc1nc(NC2(c3ccc(C(F)(F)F)cc3F)CC2)c2cnn(C)c2n1 [Example 24, N-{1-[2-Fluoro-4-(trifluoromethyl)-phenyl]cyclo-propyl}-1,6-dimethyl-1H-pyrazolo[3,4-d]-pyrimidin-4-amine] | 29 nM | –
Cc1nc(NC2(c3ccc(C(F)(F)F)cc3)CCC2)c2cnn(C)c2n1 [Example 25, 1,6-Dimethyl-N-{1-[4-(trifluoro-methyl)phenyl]-cyclobutyl}-1H-pyrazolo[3,4-d]-pyrimidin-4-amine] | 430 nM | Ki [3, 8]: 358 nM
Cc1nc(N(C)C2(c3ccc(C(F)(F)F)cc3)CC2)c2cnn(C)c2n1 [Example 26, N,1,6-Trimethyl-N-{1-[4-(trifluoromethyl)phenyl]cyclopropyl}-1H-pyrazolo[3,4-d]pyrimidin-4-amine] | 4.9 nM | –

Structure (SMILES) | Ki [1, 7] | other results
Cc1nc(NC2(c3ccc(C(F)(F)F)c(F)c3)CC2)c2cnn(CC(F)(F)F)c2n1 [Example 28, N-{1-[3-Fluoro-4-(trifluoromethyl)phenyl]cyclopropyl}-6-methyl-1-(2,2,2-trifluoroethyl)-1H-pyrazolo[3,4-d]pyrimidin-4-amine] | 76 nM | Ki [3, 8]: 98 nM
Cn1ncc2c(NC3(c4ccc(C(F)(F)F)cc4)CC3)nc(C#N)nc21 [Example 29, 1-Methyl-4-{1-[4-(trifluoromethyl)phenyl]cyclopropylamino}-1H-pyrazolo[3,4-d]pyrimidine-6-carbonitrile] | 39 nM | Ki [3, 8]: 47 nM
Cc1nc(OC2(c3ccc(C(F)(F)F)cc3)CC2)c2cnn(C)c2n1 [Example 30, 1,6-Dimethyl-4-({1-[4-(trifluoromethyl)phenyl]cyclopropyl}oxy)-1H-pyrazolo[3,4-d]pyrimidine] | 32 nM | –
Cc1cc(NC2(c3ccc(C(F)(F)F)c(F)c3)CC2)n2ccnc2n1 [Example 31, N-(1-(3-Fluoro-4-(trifluoromethyl)phenyl)cyclopropyl)-7-methylimidazo[1,2-a]pyrimidin-5-amine] | – | Ki [1, 4]: 55 nM
Cc1cc(N[C@@H](c2ccc(C(F)(F)F)c(F)c2)C(C)(C)C)n2ccnc2n1 [Example 32, (R)—N-(1-(3-Fluoro-4-(trifluoromethyl)phenyl)-2,2-dimethylpropyl)-7-methylimidazo[1,2-a]pyrimidin-5-amine] | 51 nM | –
Cc1nc(N[C@@H](c2ccc(C(F)(F)F)c(F)c2)C(C)(C)C)c2nc[nH]c2n1 [Example 35] | 566 nM | –
Cc1nc(NC2(c3ccc(C(F)(F)F)c(F)c3)CC2)c2nc[nH]c2n1 [Example 36, N-{1-[3-Fluoro-4-(trifluoromethyl)phenyl]cyclopropyl}-2-methyl-9H-purin-6-amine] | 206 nM | –
Cc1nc(NC2(c3ccc(C(F)(F)F)c(F)c3)CC2)c2ncn(C)c2n1 [Example 37, N-(1-(3-Fluoro-4-(trifluoromethyl)phenyl)cyclopropyl)-2,9-dimethyl-9H-purin-6-amine] | 115 nM | –
Cc1cc(NC2(c3ccc(C(F)(F)F)c(F)c3)CC2)n2ncc(C#N)c2n1 [Example 39, 7-((1-(3-Fluoro-4-(trifluoromethyl)phenyl)cyclopropyl)amino)-5-methylpyrazolo[1,5-a]pyrimidine-3-carbonitrile] | 503 nM | –
Cc1cc(N[C@@H](c2ccc(C(F)(F)F)c(F)c2)C(C)(C)C)n2ncc(C#N)c2n1 [Example 40, 7-({(1R)-1-[3-Fluoro-4-(trifluoromethyl)phenyl]-2,2-dimethylpropyl}amino)-5-methylpyrazolo[1,5-a]pyrimidine-3-carbonitrile] | 462 nM | –
Cc1cc(NC2(c3ccc(C(F)(F)F)c(F)c3)CC2)n2ncc(N)c2n1 [Example 41, N^7-{1-[3-Fluoro-4-(trifluoromethyl)phenyl]cyclopropyl}-5-methylpyrazolo[1,5-a]pyrimidine-3,7-diamine] | 337 nM | –
Cc1cc(N[C@@H](c2ccc(C(F)(F)F)c(F)c2)C(C)(C)C)n2ncc(N)c2n1 [Example 42, N^7-{(1R)-1-[3-Fluoro-4-(trifluoromethyl)phenyl]-2,2-dimethylpropyl}-5-methylpyrazolo[1,5-a]pyrimidine-3,7-diamine] | 580 nM | –
Cc1cc(NC2(c3ccc(C(F)(F)F)c(F)c3)CC2)n2nc(CO)cc2n1 [Example 43, [7-({1-[3-Fluoro-4-(trifluoromethyl)phenyl]cyclopropyl}amino)-5-methylpyrazolo[1,5-a]pyrimidin-2-yl]methanol] | 169 nM | –
Cc1cc(NC2(c3ccc(C(F)(F)F)c(F)c3)CC2)n2ncc(CO)c2n1 [Example 45, [7-({1-[3-Fluoro-4-(trifluoromethyl)phenyl]cyclopropyl}amino)-5-methylpyrazolo[1,5-a]pyrimidin-3-yl]methanol] | 682 nM | –
Cc1cc(N[C@@H](c2ccc(C(F)(F)F)c(F)c2)C(C)(C)C)n2ncc(CO)c2n1 [Example 46] | ~2640 nM | –
Cc1cc(NC2(c3ccc(C(F)(F)F)c(F)c3)CC2)n2nccc2n1 [Example 47, N-{1-[3-Fluoro-4-(trifluoromethyl)phenyl]cyclopropyl}-5-methylpyrazolo[1,5-a]pyrimidin-7-amine] | 199 nM | –
Cc1cc(N[C@@H](c2ccc(C(F)(F)F)c(F)c2)C(C)(C)C)n2nccc2n1 [Example 48, N-{(1R)-1-[3-Fluoro-4-(trifluoromethyl)phenyl]-2,2-dimethylpropyl}-5-methylpyrazolo[1,5-a]pyrimidin-7-amine] | 174 nM | –

Source: US10647727B2, “Substituted pyrazolo/imidazolo bicyclic compounds as PDE2 inhibitors” (Merck Sharp & Dohme Corp., priority 2015, dated 2020)
